{
  "source": "ChEMBL document CHEMBL4800729",
  "about": "(2021)",
  "key": {"[1]": {"target": "Serine/threonine-protein kinase Sgk1 (Homo sapiens) (UniProt O00141)", "experiment": "SGK(h) Millipore kinase panel", "settings": "Compound concentration 1.0 uM"}, "[2]": {"target": "Phosphatidylinositol 4-phosphate 5-kinase type-1 alpha (Homo sapiens) (UniProt Q99755)", "sequence (Q99755 whole entry)": "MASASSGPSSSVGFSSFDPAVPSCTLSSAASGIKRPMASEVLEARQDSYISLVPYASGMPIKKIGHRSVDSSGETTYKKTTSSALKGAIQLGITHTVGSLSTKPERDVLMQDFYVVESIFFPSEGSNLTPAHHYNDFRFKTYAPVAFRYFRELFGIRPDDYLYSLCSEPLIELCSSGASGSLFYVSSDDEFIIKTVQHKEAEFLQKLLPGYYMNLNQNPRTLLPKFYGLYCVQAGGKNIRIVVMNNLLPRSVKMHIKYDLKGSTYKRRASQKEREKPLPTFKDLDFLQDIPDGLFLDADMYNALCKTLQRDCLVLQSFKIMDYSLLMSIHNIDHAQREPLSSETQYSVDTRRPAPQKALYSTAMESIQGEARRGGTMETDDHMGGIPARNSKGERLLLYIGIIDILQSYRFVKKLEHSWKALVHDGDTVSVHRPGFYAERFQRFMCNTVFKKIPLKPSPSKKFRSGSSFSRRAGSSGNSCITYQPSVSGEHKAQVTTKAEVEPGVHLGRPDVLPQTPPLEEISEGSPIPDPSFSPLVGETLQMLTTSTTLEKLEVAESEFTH", "experiment": "PIP5K1a(h) Millipore kinase panel", "settings": "Compound concentration 1.0 uM"}, "[3]": {"target": "Type-2 angiotensin II receptor (Homo sapiens) (UniProt P50052)", "settings": "Compound concentration 10.0 uM"}, "[4]": {"target": "Receptor tyrosine-protein kinase erbB-2 (Homo sapiens) (UniProt P04626)", "experiment": "ErbB2(h) Millipore kinase panel", "settings": "Compound concentration 1.0 uM"}, "[5]": {"target": "Serine/threonine-protein kinase 16 (Homo sapiens) (UniProt O75716)", "sequence (O75716 whole entry)": "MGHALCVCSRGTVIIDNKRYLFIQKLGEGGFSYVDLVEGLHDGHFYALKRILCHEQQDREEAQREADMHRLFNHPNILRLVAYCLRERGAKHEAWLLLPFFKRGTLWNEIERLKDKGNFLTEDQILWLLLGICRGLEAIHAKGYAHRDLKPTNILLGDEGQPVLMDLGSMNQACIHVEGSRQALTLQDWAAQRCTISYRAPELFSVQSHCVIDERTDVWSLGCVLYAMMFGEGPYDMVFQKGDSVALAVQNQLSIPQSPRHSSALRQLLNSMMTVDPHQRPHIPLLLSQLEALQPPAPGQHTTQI", "experiment": "STK16(h) Millipore kinase panel", "settings": "Compound concentration 1.0 uM"}, "[6]": {"target": "T1, Alpha-2C adrenergic receptor (Homo sapiens) (UniProt P18825)", "T1 sequence (whole entry)": "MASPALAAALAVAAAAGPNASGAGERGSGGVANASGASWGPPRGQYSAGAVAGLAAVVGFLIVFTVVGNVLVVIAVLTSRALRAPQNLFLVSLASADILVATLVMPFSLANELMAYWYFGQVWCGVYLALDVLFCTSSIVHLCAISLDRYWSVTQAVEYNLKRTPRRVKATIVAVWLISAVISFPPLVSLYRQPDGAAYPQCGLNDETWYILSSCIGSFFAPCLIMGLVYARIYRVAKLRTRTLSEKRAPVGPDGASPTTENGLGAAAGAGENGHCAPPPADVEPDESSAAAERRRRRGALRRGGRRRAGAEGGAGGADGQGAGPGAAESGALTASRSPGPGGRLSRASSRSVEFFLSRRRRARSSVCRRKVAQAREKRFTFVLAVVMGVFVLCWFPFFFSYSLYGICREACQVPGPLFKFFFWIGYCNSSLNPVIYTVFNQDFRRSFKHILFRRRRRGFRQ", "settings": "Compound concentration 10.0 uM"}, "[7]": {"target": "Protein kinase C zeta type (Homo sapiens) (UniProt Q05513)", "sequence (Q05513 whole entry)": "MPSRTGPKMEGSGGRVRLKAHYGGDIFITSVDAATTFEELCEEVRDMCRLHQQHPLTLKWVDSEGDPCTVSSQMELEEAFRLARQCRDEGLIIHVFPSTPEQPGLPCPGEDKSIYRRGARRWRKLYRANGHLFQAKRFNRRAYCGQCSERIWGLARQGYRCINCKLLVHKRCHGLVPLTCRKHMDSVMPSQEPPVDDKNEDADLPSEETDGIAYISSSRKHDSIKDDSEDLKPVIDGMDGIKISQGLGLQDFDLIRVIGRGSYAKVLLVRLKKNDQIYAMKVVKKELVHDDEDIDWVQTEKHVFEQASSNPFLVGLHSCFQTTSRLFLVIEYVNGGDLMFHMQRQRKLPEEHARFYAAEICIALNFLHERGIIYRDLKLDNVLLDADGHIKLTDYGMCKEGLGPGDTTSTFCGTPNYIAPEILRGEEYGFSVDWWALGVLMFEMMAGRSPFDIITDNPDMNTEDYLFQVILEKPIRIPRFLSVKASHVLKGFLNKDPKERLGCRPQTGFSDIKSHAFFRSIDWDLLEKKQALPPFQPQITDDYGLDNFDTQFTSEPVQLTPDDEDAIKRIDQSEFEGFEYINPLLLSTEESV", "experiment": "PKCzeta(h) Millipore kinase panel", "settings": "Compound concentration 1.0 uM"}, "[8]": {"target": "Vascular endothelial growth factor receptor 1 (Homo sapiens) (UniProt P17948)", "experiment": "Flt1(h) Millipore kinase panel", "settings": "Compound concentration 1.0 uM"}, "[9]": {"target": "Mu-type opioid receptor (Homo sapiens) (UniProt P35372)", "settings": "Compound concentration 10.0 uM"}, "[10]": {"target": "Testis-specific serine/threonine-protein kinase 3 (Homo sapiens) (UniProt Q96PN8)", "experiment": "TSSK3(h) Millipore kinase panel", "settings": "Compound concentration 1.0 uM"}, "[11]": {"target": "Mitogen-activated protein kinase 9 (Homo sapiens) (UniProt P45984)", "experiment": "JNK2alpha2(h) Millipore kinase panel", "settings": "Compound concentration 1.0 uM"}, "[12]": {"target": "Death-associated protein kinase 3 (Homo sapiens) (UniProt O43293)", "experiment": "ZIPK(h) Millipore kinase panel", "settings": "Compound concentration 1.0 uM"}, "[13]": {"target": "PI3K p110 beta/p85 alpha (Homo sapiens) (UniProt P27986+P42338)", "experiment": "PI3 Kinase (p110b/p85a)(h) Millipore kinase panel", "assay_type": "protein-complex assay", "settings": "Compound concentration 1.0 uM"}, "[14]": {"target": "Dual specificity tyrosine-phosphorylation-regulated kinase 3 (Homo sapiens) (UniProt O43781)", "experiment": "DYRK3(h) Millipore kinase panel", "settings": "Compound concentration 1.0 uM"}, "[15]": {"target": "Serine/threonine-protein kinase A-Raf (Homo sapiens) (UniProt P10398)", "sequence (P10398 whole entry)": "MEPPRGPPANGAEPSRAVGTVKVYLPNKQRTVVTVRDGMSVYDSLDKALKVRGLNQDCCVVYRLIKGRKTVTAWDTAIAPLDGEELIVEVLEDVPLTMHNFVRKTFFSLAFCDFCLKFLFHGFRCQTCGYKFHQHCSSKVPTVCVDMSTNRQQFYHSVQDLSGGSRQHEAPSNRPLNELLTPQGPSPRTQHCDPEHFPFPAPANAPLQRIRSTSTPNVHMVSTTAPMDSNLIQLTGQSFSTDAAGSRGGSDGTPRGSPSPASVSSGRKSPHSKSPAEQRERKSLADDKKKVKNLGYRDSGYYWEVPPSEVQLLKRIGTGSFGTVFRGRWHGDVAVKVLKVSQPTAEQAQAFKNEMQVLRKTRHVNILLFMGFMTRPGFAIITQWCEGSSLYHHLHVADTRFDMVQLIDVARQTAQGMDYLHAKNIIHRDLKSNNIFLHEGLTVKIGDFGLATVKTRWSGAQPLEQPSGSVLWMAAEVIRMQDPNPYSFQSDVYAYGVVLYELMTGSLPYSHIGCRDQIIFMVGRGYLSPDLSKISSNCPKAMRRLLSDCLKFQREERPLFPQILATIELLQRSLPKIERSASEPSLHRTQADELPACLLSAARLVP", "experiment": "A_Raf(h) Millipore kinase panel", "settings": "Compound concentration 1.0 uM"}, "[16]": {"target": "Tau-tubulin kinase 2 (Homo sapiens) (UniProt Q6IQ55)", "experiment": "TTBK2(h) Millipore kinase panel", "settings": "Compound concentration 1.0 uM"}, "[17]": {"target": "Serine/threonine-protein kinase Nek2 (Homo sapiens) (UniProt P51955)", "sequence (P51955 whole entry)": "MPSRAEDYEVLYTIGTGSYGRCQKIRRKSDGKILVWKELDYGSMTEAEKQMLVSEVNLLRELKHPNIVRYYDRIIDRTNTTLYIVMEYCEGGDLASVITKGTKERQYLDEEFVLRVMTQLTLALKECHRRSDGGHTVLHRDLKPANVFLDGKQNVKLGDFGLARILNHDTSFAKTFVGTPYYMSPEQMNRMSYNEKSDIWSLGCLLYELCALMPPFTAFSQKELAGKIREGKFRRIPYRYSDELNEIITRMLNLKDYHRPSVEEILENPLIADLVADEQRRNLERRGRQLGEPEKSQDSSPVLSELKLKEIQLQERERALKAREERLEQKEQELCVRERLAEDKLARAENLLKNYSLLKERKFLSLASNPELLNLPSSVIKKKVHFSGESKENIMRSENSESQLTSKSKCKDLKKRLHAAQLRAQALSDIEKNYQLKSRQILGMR", "experiment": "NEK2(h) Millipore kinase panel", "settings": "Compound concentration 1.0 uM"}, "[18]": {"target": "Sigma intracellular receptor 2 (Homo sapiens) (UniProt Q5BJF2)", "sequence (Q5BJF2 whole entry)": "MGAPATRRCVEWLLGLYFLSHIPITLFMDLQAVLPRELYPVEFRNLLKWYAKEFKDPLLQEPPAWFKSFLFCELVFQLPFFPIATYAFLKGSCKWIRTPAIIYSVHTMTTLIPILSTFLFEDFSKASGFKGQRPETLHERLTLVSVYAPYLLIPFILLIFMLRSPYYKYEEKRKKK", "settings": "Compound concentration 10.0 uM"}, "[19]": {"target": "D(4) dopamine receptor (Homo sapiens) (UniProt P21917)", "settings": "Compound concentration 10.0 uM"}, "[20]": {"target": "Mitogen-activated protein kinase kinase kinase kinase 3 (Homo sapiens) (UniProt Q8IVH8)", "experiment": "MAP4K3(h) Millipore kinase panel", "settings": "Compound concentration 1.0 uM"}, "[21]": {"target": "Rho-associated protein kinase 1 (Homo sapiens) (UniProt Q13464)", "experiment": "ROCK-I(h) Millipore kinase panel", "settings": "Compound concentration 1.0 uM"}, "[22]": {"target": "CDK7/Cyclin H/MNAT1 (Homo sapiens) (UniProt P51946+P50613+P51948)", "experiment": "CDK7/cyclinH/MAT1(h) Millipore kinase panel", "assay_type": "protein-complex assay", "settings": "Compound concentration 1.0 uM"}, "[23]": {"target": "Serine/threonine-protein kinase N2 (Homo sapiens) (UniProt Q16513)", "sequence (Q16513 whole entry, looked up)": "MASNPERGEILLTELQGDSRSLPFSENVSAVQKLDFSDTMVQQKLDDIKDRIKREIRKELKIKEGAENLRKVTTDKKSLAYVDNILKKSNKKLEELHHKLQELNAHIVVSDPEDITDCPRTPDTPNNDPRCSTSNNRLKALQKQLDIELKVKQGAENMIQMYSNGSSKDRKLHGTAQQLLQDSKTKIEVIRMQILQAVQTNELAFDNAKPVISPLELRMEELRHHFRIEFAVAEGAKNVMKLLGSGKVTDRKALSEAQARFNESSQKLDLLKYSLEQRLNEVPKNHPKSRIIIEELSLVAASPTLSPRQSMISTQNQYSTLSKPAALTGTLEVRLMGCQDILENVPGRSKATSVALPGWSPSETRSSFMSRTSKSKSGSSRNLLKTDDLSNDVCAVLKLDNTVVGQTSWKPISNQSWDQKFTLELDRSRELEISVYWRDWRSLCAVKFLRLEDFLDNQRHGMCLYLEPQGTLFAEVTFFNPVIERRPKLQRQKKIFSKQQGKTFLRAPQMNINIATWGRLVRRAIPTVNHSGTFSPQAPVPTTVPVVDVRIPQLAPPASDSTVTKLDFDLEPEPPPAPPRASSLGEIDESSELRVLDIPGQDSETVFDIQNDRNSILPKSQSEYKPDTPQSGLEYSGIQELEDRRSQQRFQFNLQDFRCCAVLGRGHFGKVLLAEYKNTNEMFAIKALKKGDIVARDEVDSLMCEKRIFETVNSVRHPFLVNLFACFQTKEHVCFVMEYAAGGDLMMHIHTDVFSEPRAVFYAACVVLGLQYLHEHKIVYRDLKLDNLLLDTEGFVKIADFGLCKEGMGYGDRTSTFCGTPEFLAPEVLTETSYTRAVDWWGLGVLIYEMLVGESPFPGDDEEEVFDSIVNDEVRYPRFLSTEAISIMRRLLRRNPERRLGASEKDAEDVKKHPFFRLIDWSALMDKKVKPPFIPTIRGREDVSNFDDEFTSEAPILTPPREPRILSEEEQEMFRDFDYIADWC", "experiment": "PRK2(h) Millipore kinase panel", "settings": "Compound concentration 1.0 uM"}, "[24]": {"target": "Beta-1 adrenergic receptor (Homo sapiens) (UniProt P08588)", "settings": "Compound concentration 10.0 uM"}, "[25]": {"target": "Receptor-interacting serine/threonine-protein kinase 1 (Homo sapiens) (UniProt Q13546)", "experiment": "RIPK1(h) Millipore kinase panel", "settings": "Compound concentration 1.0 uM"}, "[26]": {"target": "Dual specificity protein kinase CLK3 (Homo sapiens) (UniProt P49761)", "experiment": "CLK3(h) Millipore kinase panel", "settings": "Compound concentration 1.0 uM"}, "[27]": {"target": "Tyrosine-protein kinase HCK (Homo sapiens) (UniProt P08631)", "experiment": "Hck(h) activated Millipore kinase panel", "settings": "Compound concentration 1.0 uM"}, "[28]": {"target": "Histamine H1 receptor (Homo sapiens) (UniProt P35367)", "sequence (P35367 whole entry)": "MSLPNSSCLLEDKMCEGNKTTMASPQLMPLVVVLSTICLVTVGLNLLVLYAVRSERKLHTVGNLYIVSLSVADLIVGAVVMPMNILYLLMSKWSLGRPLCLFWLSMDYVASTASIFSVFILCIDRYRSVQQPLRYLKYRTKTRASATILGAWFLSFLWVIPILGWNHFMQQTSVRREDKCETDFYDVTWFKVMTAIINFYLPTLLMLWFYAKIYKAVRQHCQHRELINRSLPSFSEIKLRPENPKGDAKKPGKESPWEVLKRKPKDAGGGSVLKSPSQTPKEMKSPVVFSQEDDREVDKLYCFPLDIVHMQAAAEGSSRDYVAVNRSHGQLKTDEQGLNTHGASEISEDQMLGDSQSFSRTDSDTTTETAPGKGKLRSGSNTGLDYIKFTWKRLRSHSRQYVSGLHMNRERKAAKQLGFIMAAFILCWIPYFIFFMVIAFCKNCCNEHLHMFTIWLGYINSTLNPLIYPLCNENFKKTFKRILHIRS", "settings": "Compound concentration 10.0 uM"}, "[29]": {"target": "CDK6/cyclin D3 (Homo sapiens) (UniProt P30281+Q00534)", "experiment": "CDK6/cyclinD3(h) Millipore kinase panel", "assay_type": "protein-complex assay", "settings": "Compound concentration 1.0 uM"}, "[30]": {"target": "[Pyruvate dehydrogenase (acetyl-transferring)] kinase isozyme 2, mitochondrial (Homo sapiens) (UniProt Q15119)", "experiment": "PDHK2(h) Millipore kinase panel", "settings": "Compound concentration 1.0 uM"}, "[31]": {"target": "Dual specificity tyrosine-phosphorylation-regulated kinase 1A (Homo sapiens) (UniProt Q13627)", "experiment": "DYRK1A(h) Millipore kinase panel", "settings": "Compound concentration 1.0 uM"}, "[32]": {"target": "SRSF protein kinase 1 (Homo sapiens) (UniProt Q96SB4)", "experiment": "SRPK1(h) Millipore kinase panel", "settings": "Compound concentration 1.0 uM"}, "[33]": {"target": "Testis-specific serine/threonine-protein kinase 2 (Homo sapiens) (UniProt Q96PF2)", "experiment": "TSSK2(h) Millipore kinase panel", "settings": "Compound concentration 1.0 uM"}, "[34]": {"target": "STE20-like serine/threonine-protein kinase (Homo sapiens) (UniProt Q9H2G2)", "experiment": "SLK(h) Millipore kinase panel", "settings": "Compound concentration 1.0 uM"}, "[35]": {"target": "Muscle, skeletal receptor tyrosine-protein kinase (Homo sapiens) (UniProt O15146)", "sequence (O15146 whole entry)": "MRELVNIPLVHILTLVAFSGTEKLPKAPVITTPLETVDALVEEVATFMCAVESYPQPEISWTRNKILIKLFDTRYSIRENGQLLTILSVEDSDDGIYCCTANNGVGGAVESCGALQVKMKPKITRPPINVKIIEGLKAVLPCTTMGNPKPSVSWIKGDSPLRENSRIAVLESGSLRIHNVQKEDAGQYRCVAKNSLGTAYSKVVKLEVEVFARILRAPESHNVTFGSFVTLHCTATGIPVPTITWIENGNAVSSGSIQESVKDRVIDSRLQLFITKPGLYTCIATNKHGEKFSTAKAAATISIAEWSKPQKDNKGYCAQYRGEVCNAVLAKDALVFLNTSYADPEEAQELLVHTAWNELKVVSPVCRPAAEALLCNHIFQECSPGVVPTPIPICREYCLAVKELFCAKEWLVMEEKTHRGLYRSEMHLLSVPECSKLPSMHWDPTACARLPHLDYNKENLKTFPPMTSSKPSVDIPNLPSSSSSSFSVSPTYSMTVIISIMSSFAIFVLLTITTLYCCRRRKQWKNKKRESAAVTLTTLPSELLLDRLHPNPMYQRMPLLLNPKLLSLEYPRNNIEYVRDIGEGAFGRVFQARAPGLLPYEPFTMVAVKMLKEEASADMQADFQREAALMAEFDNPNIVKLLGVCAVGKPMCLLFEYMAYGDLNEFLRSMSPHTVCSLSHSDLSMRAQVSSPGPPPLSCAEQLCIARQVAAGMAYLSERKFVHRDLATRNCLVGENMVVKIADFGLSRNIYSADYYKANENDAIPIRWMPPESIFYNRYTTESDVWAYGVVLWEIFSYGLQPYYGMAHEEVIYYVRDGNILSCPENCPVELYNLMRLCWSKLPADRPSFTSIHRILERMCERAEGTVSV", "experiment": "MuSK(h) Millipore kinase panel", "settings": "Compound concentration 1.0 uM"}, "[36]": {"target": "Ribosomal protein S6 kinase alpha-5 (Homo sapiens) (UniProt O75582)", "experiment": "MSK1(h) Millipore kinase panel", "settings": "Compound concentration 1.0 uM"}, "[37]": {"target": "Insulin receptor (Homo sapiens) (UniProt P06213)", "experiment": "IR(h) Millipore kinase panel", "settings": "Compound concentration 1.0 uM"}, "[38]": {"target": "Serine/threonine-protein kinase Chk1 (Homo sapiens) (UniProt O14757)", "experiment": "CHK1(h) Millipore kinase panel", "settings": "Compound concentration 1.0 uM"}, "[39]": {"target": "Ephrin type-A receptor 8 (Homo sapiens) (UniProt P29322)", "experiment": "EphA8(h) Millipore kinase panel", "settings": "Compound concentration 1.0 uM"}, "[40]": {"target": "Histamine H3 receptor (Homo sapiens) (UniProt Q9Y5N1)", "settings": "Compound concentration 10.0 uM"}, "[41]": {"target": "5-hydroxytryptamine receptor 2C (Homo sapiens) (UniProt P28335)", "settings": "Compound concentration 10.0 uM"}, "[42]": {"target": "GABA-A receptor; anion channel", "experiment": "GPCRScan assay: inhibition of GABAA/BZP", "assay_type": "protein-complex assay, Rattus norvegicus", "parameters": "radioligand conc. used [nm] 0.6 – 4.0, parental cells brain tissue"}},
  "data": [
    {"molecule": "CC[C@@H](Nc1c(C#N)c(-c2ccc(-c3cccc(C)c3F)cc2)nc2cnccc12)C(=O)O", "note": "[BAY-091]", "values": [
      {"measurement": "inhibition", "setting": "[1]", "value": -6.56, "unit": "%"},
      {"measurement": "inhibition", "setting": "[2]", "value": 10, "unit": "%"},
      {"measurement": "inhibition", "setting": "[3]", "value": 11, "unit": "%"},
      {"measurement": "inhibition", "setting": "[4]", "value": 8.53, "unit": "%"},
      {"measurement": "inhibition", "setting": "[5]", "value": 9.54, "unit": "%"},
      {"measurement": "inhibition", "setting": "[6]", "value": 4, "unit": "%"},
      {"measurement": "inhibition", "setting": "[7]", "value": -2.41, "unit": "%"},
      {"measurement": "inhibition", "setting": "[8]", "value": 56.8, "unit": "%"},
      {"measurement": "inhibition", "setting": "[9]", "value": 13, "unit": "%"},
      {"measurement": "inhibition", "setting": "[10]", "value": 8.88, "unit": "%"},
      {"measurement": "inhibition", "setting": "[11]", "value": -1.41, "unit": "%"},
      {"measurement": "inhibition", "setting": "[12]", "value": 0.91, "unit": "%"},
      {"measurement": "inhibition", "setting": "[13]", "value": 0.43, "unit": "%"},
      {"measurement": "inhibition", "setting": "[14]", "value": 7.66, "unit": "%"},
      {"measurement": "inhibition", "setting": "[15]", "value": 2.41, "unit": "%"},
      {"measurement": "inhibition", "setting": "[16]", "value": 1.17, "unit": "%"},
      {"measurement": "inhibition", "setting": "[17]", "value": 15.9, "unit": "%"},
      {"measurement": "inhibition", "setting": "[18]", "value": 24.6, "unit": "%"},
      {"measurement": "inhibition", "setting": "[19]", "value": 2.8, "unit": "%"},
      {"measurement": "inhibition", "setting": "[20]", "value": 8.29, "unit": "%"},
      {"measurement": "inhibition", "setting": "[21]", "value": -2.77, "unit": "%"},
      {"measurement": "inhibition", "setting": "[22]", "value": 0.3, "unit": "%"},
      {"measurement": "inhibition", "setting": "[23]", "value": 5.02, "unit": "%"},
      {"measurement": "inhibition", "setting": "[24]", "value": 2, "unit": "%"},
      {"measurement": "inhibition", "setting": "[25]", "value": 21.2, "unit": "%"},
      {"measurement": "inhibition", "setting": "[26]", "value": 2.84, "unit": "%"},
      {"measurement": "inhibition", "setting": "[27]", "value": -6.21, "unit": "%"},
      {"measurement": "inhibition", "setting": "[28]", "value": 27, "unit": "%"},
      {"measurement": "inhibition", "setting": "[29]", "value": 8.28, "unit": "%"},
      {"measurement": "inhibition", "setting": "[30]", "value": 12.4, "unit": "%"},
      {"measurement": "inhibition", "setting": "[31]", "value": 4.22, "unit": "%"},
      {"measurement": "inhibition", "setting": "[32]", "value": 3.4, "unit": "%"},
      {"measurement": "inhibition", "setting": "[33]", "value": -1.97, "unit": "%"},
      {"measurement": "inhibition", "setting": "[34]", "value": 19.7, "unit": "%"},
      {"measurement": "inhibition", "setting": "[35]", "value": 5.1, "unit": "%"},
      {"measurement": "inhibition", "setting": "[36]", "value": 1.48, "unit": "%"},
      {"measurement": "inhibition", "setting": "[37]", "value": -2.92, "unit": "%"},
      {"measurement": "inhibition", "setting": "[38]", "value": 4.56, "unit": "%"},
      {"measurement": "inhibition", "setting": "[39]", "value": -6.72, "unit": "%"},
      {"measurement": "inhibition", "setting": "[40]", "value": -3.06, "unit": "%"},
      {"measurement": "inhibition", "setting": "[41]", "value": -9.38, "unit": "%"},
      {"measurement": "Ki", "setting": "[42]", "value": 6.83, "unit": "µM"}
    ]}
  ]
}
